Test results taken from ChEMBL document CHEMBL1201862, “PubChem BioAssay data set” (2004).
Activity calls are given as the source filed them.

Legend:
[1] = molecular target: Adenosylmethionine-8-amino-7-oxononanoate aminotransferase (Mycobacterium tuberculosis, UniProt P9WQ81); test: Mycobacterium tuberculosis BioA enzyme inhibitor Measured in Biochemical System Using Plate Reader - 2163-02_Inhibitor_Dose_CherryPick_Activity.; format: functional, Mycobacterium tuberculosis UT205
[2] = molecular target: Peroxisome proliferator-activated receptor gamma/Nuclear receptor coactivator 2 (Homo sapiens, UniProt P37231); format: functional;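 note: agonist potency for raising coactivator recruitment to the receptor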
[3] = molecular target: Peroxisome proliferator-activated receptor gamma/Nuclear receptor coactivator 1 (Homo sapiens, UniProt P37231); format: functional;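 note: agonist potency as compounds enhance coactivator SRC-1 recruitment to PPARgamma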
[4] = molecular target: Peroxisome proliferator-activated receptor gamma/Nuclear receptor coactivator 3 (Homo sapiens, UniProt P37231); format: functional;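 note: agonist potency for raising coactivator recruitment to the receptor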
[5] = molecular target: T1, Insulin-degrading enzyme (Homo sapiens, UniProt P14735); test: recombinant IDE activation, cell-free – biochemical, fluorescence polarization, counter-screen for IDE activator project, dose response (AID 588681)
T1 sequence (P14735 whole entry): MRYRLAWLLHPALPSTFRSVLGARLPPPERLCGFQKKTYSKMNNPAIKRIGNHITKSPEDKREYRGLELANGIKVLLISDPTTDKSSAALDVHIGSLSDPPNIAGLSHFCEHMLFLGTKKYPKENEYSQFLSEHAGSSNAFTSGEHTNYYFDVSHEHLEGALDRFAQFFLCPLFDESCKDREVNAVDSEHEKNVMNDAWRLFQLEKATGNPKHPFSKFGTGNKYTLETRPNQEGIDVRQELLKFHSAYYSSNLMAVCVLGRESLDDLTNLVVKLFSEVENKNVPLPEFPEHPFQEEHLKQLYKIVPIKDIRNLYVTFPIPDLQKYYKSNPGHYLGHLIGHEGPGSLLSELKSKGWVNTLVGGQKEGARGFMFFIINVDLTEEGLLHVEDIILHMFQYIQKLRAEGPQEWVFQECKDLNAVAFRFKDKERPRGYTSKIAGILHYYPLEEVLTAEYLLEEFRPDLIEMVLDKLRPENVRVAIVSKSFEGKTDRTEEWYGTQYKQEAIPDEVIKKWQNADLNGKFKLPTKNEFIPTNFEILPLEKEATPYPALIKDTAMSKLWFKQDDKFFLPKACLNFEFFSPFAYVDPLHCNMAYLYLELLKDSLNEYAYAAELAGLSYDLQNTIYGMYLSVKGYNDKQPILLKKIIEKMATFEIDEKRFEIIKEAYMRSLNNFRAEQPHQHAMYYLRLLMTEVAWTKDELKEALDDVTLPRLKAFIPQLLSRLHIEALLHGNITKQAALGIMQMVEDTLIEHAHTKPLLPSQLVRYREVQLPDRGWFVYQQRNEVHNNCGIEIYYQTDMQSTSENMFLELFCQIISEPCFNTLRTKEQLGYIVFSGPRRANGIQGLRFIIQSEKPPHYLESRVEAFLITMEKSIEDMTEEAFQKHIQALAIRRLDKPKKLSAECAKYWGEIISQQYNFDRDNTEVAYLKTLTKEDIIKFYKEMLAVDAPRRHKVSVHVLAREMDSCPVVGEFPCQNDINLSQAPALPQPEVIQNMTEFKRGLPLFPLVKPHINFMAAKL

[6] = molecular target: T1, Insulin-degrading enzyme; test: cellular IDE activation of Abeta substrate cleavage – fluorescence polarization, HEK cells, dose response (AID 588439); format: functional, cell-based
[7] = tested on: HEK293; test: membrane integrity loss in HEK cells – cell-based, fluorescence, cytotoxicity control for IDE activator project, dose response (AID 588440); format: functional; details: Homo sapiens;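 note: cytotoxicity by LDH release measuring loss of membrane integrity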
[8] = tested on: HEK293; test: optical interference in Abeta FP readout, dose response, artefact control for IDE activator project, biochemical, fluorescence polarization (AID 588442); format: functional, cell-based; details: Homo sapiens
[9] = molecular target: T2, ORF 73 (Human herpesvirus 8, UniProt O40947); test: KSHV LANA DNA-binding disruption – biochemical, fluorescence polarization, cherry-picked samples, dose response (AID 504725); design: species or system Human gammaherpesvirus 8;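 note: fluorescence polarization of a labeled DNA duplex reporting LANA DNA binding; potency is for inhibitors that block LANA binding to the DNA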
T2 sequence (O40947 whole entry): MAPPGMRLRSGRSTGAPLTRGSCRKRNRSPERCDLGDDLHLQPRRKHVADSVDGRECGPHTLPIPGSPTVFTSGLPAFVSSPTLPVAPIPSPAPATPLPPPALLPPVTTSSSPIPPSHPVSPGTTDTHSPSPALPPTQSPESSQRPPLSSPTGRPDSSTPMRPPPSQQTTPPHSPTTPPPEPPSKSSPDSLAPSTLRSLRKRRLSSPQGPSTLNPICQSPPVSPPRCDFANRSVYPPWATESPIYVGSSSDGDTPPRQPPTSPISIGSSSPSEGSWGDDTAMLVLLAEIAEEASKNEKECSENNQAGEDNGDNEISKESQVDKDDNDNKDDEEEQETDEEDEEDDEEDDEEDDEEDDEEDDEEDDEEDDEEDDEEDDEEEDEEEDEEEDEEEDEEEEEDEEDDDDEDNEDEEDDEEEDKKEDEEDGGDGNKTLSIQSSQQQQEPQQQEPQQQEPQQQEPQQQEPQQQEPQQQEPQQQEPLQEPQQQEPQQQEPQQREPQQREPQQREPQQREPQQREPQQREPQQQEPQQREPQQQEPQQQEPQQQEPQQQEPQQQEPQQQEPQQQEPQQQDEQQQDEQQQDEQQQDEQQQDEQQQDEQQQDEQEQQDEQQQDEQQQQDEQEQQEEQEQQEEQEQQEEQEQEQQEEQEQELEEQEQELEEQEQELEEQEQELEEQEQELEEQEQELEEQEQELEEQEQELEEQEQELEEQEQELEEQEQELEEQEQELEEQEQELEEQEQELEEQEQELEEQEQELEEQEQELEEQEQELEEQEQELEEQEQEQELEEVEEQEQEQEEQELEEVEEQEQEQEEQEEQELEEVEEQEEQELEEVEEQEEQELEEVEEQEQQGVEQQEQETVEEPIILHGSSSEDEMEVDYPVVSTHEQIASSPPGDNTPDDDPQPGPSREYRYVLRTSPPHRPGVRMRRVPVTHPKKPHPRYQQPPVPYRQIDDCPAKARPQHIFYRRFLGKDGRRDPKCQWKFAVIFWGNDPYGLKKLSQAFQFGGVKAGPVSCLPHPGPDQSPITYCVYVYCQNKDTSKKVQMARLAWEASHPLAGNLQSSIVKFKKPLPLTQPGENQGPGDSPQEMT

[10] = molecular target: T3, Mitochondrial peptide methionine sulfoxide reductase (Bos taurus, UniProt P54149); test: Absorbance-based biochemical high throughput dose response assay for activators of Methionine sulfoxide reductase A (MsrA).; format: functional
T3 sequence (P54149 whole entry): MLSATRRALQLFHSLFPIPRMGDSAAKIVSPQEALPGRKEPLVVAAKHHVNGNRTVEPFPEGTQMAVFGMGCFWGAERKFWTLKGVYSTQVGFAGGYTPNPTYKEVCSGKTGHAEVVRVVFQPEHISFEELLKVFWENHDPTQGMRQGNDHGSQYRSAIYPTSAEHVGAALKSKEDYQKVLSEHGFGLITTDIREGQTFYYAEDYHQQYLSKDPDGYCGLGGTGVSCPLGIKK

[11] = molecular target: T3, Mitochondrial peptide methionine sulfoxide reductase; format: functional
[12] = tested on: BJ; test: BJ-TERT fibroblast viability loss – cell-based, RAS-independent, luminescence, dose response (AID 1933); format: functional; details: Homo sapiens
[13] = tested on: BJ; test: cells; format: functional, cell-based; details: Homo sapiens
[14] = tested on: BJ; test: BJ-TERT-LT-ST fibroblast viability loss – cell-based, RAS-independent, luminescence, dose response (AID 1935); format: functional; details: Homo sapiens;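 note: BJ fibroblasts immortalized with TERT plus LT and ST oncogenes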
[15] = DRD fibroblast viability loss – cell-based, non-viral oncogenic, luminescence, dose response (AID 1934); format: functional; details: Homo sapiens
[16] = tested on: BJ; test: growth inhibition of engineered Ras-driven BJ cells – cell-based, alamar blue fluorescence, cherrypicked samples, dose response (AID 2631); format: functional; details: Homo sapiens;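 note: confirmatory dose-response assay in RAS-dependent BJ fibroblasts engineered with TERT, LT and ST, with cytotoxicity read by fluorescence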
[17] = molecular target: T4, Interleukin-8 (Homo sapiens, UniProt P10145); test: Dose Response confirmation of uHTS small molecule hits for cystic fibrosis induced NFkb Inhibitors in a TNFa-induced IL8 counterscreen.; format: functional; details: read-out: IC50_Mean
T4 sequence (P10145 whole entry): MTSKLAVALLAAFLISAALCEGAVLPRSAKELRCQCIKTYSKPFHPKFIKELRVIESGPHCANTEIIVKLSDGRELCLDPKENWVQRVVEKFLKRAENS

[18] = molecular target: T4, Interleukin-8; test: Dose Response confirmation of uHTS small molecule hits for cystic fibrosis induced NFkb Inhibitors in a PAF-induced IL8 counterscreen.; format: functional; details: read-out: IC50_Mean
[19] = toxicity toward HepG2 liver cells – cell-based, plate reader, cherry-pick, antagonist series, cytotoxicity control, dose response (AID 743416); format: functional
[20] = blockers of bursicon-stimulated LGR2 cAMP reporter – cell-based, HEK293, CRE-luciferase reporter, cherry pick, set 2, dose response (AID 743343); format: functional;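 note: transfected cells were stimulated with diluted bursicon conditioned medium after compound addition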
[21] = blockade of melanocortin 4 receptor signaling – cell-based, plate reader, cherry pick, counter-screen for LGR2 antagonist project, dose response (AID 743444); format: functional;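 note: transfected HEK 293 cells stimulated with alpha-MSH peptide; potency of inhibitors of the alpha-MSH evoked signal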
[22] = tested on: HeLa; test: ATP-based viability loss in HeLa cells – cell-based, CellTiter-Glo luminescence, cherry-pick samples, cytotoxicity control for MITF activator project, dose response (AID 540259); format: functional; details: Homo sapiens
[23] = molecular target: T5, Protein skinhead-1 (Caenorhabditis elegans, UniProt P34707); format: functional
T5 sequence (P34707 whole entry): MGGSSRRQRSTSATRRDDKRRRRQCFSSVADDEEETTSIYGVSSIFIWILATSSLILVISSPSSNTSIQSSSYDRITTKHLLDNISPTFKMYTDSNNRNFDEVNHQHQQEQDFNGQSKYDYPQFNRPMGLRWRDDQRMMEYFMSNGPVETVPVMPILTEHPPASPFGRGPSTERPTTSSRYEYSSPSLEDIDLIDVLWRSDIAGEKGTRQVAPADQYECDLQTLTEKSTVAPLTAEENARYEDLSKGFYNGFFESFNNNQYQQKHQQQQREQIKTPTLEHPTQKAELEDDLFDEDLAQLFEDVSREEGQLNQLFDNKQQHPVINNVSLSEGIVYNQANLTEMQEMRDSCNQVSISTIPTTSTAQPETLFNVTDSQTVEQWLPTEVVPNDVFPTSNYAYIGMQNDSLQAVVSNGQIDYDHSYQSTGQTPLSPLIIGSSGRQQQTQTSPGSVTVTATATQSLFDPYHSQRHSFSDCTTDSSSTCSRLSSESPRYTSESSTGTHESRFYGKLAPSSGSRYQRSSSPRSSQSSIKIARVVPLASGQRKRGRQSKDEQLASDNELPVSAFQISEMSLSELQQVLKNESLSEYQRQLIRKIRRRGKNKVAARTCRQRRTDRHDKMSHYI

[24] = molecular target: T6, Low molecular weight phosphotyrosine protein phosphatase (Homo sapiens, UniProt P24666); format: functional; details: read-out: IC50_Mean;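 note: Dose-response confirmation assay measuring inhibition of LMPTP enzyme activity by fluorescence intensity read-out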
T6 sequence (P24666 whole entry): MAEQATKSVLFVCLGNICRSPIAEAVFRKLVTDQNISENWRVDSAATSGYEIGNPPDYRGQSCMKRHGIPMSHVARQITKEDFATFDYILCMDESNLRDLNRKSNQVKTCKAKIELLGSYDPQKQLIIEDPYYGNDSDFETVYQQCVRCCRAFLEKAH

[25] = molecular target: DNA (cytosine-5)-methyltransferase 1 (Homo sapiens, UniProt P26358); test: inhibition of DNA methylation by DNMT1 – biochemical, fluorescent molecular beacon, confirmation (AID 602386); format: functional
DNA (cytosine-5)-methyltransferase 1, sequence (P26358 whole entry): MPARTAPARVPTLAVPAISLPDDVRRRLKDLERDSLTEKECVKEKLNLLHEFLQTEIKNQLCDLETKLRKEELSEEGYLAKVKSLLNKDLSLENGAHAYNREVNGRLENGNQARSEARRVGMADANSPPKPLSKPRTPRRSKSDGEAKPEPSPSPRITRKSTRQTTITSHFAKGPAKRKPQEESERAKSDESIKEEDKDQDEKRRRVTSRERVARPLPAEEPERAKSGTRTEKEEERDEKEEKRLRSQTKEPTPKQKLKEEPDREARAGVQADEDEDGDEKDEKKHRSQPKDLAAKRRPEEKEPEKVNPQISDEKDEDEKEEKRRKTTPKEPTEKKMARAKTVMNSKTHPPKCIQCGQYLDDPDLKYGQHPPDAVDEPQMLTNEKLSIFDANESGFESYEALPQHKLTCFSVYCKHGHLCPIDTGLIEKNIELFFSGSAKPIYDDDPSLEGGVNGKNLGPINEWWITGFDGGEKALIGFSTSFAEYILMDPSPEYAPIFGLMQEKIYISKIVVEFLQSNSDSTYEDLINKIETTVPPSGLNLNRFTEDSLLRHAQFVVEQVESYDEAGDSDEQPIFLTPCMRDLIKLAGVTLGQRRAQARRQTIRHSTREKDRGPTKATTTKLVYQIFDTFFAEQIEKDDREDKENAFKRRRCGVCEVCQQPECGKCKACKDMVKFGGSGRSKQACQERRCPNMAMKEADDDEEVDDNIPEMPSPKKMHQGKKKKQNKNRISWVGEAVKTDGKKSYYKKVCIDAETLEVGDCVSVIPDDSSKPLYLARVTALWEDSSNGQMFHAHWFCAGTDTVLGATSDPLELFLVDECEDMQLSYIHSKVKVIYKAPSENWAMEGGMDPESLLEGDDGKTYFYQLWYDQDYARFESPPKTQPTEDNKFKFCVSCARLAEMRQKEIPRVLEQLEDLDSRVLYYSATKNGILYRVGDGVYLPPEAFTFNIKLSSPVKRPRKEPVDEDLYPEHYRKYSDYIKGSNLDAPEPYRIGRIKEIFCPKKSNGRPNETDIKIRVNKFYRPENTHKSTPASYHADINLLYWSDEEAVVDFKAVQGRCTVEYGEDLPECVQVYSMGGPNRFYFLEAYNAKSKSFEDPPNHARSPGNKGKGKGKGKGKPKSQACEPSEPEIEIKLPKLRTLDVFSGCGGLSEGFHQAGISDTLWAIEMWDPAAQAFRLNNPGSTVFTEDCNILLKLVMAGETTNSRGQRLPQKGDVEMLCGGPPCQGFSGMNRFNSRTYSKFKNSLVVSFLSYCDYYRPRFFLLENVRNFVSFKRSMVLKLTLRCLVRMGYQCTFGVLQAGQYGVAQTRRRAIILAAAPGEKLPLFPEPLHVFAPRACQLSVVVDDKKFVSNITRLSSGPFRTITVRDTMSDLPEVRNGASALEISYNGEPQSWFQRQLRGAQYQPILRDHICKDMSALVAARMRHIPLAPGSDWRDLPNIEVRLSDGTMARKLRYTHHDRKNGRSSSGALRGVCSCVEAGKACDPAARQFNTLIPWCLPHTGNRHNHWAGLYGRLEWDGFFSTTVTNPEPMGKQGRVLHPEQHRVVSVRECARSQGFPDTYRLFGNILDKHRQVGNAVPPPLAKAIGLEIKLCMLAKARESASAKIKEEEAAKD

Adenosylmethionine-8-amino-7-oxononanoate aminotransferase, sequence (P9WQ81 whole entry): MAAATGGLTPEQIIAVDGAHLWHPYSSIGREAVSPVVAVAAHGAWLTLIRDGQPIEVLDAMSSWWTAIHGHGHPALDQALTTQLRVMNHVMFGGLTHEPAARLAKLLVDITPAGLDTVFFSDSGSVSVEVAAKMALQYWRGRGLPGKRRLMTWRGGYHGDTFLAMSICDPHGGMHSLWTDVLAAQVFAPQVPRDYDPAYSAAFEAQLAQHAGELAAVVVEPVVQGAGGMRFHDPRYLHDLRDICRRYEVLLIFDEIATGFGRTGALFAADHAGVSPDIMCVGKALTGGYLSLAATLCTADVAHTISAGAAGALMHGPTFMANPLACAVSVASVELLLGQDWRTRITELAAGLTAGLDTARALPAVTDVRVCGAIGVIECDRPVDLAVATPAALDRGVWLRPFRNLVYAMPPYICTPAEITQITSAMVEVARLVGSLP
Peroxisome proliferator-activated receptor gamma/Nuclear receptor coactivator 3, sequence (P37231 whole entry): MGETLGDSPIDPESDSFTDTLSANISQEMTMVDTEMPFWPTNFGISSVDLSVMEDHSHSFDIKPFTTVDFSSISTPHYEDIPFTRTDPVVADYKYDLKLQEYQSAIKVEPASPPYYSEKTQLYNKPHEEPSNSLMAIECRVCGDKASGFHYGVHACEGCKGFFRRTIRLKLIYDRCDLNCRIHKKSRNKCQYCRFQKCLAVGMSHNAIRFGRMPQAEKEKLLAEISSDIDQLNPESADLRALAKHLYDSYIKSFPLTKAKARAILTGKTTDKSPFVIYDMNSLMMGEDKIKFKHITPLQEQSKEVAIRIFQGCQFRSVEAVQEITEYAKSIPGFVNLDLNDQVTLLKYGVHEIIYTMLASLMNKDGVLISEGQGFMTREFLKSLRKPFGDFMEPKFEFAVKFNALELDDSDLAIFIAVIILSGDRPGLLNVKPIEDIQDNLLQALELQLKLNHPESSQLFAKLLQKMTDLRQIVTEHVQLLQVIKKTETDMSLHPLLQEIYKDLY
Peroxisome proliferator-activated receptor gamma/Nuclear receptor coactivator 3, sequence (Q9Y6Q9 whole entry, further chain): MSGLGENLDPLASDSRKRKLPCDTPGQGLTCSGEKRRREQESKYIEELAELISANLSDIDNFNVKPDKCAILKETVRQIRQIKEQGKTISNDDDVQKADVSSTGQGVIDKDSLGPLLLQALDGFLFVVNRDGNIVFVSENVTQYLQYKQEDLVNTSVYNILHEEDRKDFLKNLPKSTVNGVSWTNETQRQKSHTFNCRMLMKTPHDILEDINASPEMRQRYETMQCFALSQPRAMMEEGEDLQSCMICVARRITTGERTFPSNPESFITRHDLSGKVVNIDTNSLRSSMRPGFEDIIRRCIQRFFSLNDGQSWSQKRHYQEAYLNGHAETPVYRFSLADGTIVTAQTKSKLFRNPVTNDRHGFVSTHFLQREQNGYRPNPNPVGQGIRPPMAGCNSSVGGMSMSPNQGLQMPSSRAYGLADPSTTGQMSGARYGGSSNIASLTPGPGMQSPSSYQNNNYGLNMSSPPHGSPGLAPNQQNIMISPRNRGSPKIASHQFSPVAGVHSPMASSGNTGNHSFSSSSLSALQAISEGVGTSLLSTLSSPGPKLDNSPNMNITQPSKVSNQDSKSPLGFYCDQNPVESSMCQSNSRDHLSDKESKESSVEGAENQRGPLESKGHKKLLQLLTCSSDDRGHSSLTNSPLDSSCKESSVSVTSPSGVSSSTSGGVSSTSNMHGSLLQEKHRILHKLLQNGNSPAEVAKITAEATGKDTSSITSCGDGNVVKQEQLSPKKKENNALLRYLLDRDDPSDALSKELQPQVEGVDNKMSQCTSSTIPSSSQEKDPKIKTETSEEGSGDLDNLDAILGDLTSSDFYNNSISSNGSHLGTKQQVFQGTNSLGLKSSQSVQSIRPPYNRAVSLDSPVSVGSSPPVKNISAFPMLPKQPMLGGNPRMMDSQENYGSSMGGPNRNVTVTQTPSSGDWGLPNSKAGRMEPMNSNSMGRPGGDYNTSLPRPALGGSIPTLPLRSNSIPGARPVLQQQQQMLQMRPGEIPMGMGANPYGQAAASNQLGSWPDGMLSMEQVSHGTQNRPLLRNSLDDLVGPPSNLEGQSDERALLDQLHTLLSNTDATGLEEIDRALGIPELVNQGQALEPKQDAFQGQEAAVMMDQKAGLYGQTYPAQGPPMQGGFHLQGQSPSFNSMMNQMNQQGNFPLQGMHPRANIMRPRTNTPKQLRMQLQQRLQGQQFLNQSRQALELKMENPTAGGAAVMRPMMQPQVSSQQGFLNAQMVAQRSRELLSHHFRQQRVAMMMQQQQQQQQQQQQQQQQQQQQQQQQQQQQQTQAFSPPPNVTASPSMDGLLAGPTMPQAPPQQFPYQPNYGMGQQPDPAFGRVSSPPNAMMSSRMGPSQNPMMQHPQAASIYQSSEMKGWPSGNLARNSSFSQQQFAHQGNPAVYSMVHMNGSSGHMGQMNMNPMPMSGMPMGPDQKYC

## Cc1cc2c(c(=O)n1Cc1cccnc1)C(c1cccs1)C(C#N)=C(N)O2 (stereo unspecified)
[1]
  AC50: 2.08 µM (active)

## COc1ccc2c(-c3ccccc3)cc(SCC(=O)NC(N)=O)nc2c1
[2]
  EC50: > 79.4 µM (not active)
[3]
  EC50: > 79.4 µM (not active)
[4]
  EC50: > 79.4 µM (not active)
[5]
  EC50: > 54.7 µM (inactive)
[6]
  EC50: > 54.7 µM (inactive)
[7]
  IC50: 22.3 µM (inactive)
[8]
  EC50: > 55.9 µM (inactive)

## CC(=O)OCCn1c2nc(=O)[nH]c(=O)c-2nc2cc(C)c(C)cc21
[9]
  AC50: 0.246 µM (active)
[5]
  EC50: > 54.7 µM (inactive)
[6]
  EC50: > 54.7 µM (inactive)
[7]
  IC50: > 89.2 µM (inactive)
[8]
  EC50: > 54.7 µM (inactive)
[10]
  EC50: 54.4 µM (inactive)

## O=C(NC1CCCC1)c1cnn2c(C(F)(F)F)cc(-c3ccc4c(c3)OCO4)nc12
[5]
  EC50: > 54.7 µM (inactive)
[6]
  EC50: > 54.7 µM (inactive)
[7]
  IC50: > 89.2 µM (inactive)
[8]
  EC50: > 55.9 µM (inactive)

## COc1ccc(CNC(=O)c2ccc(=O)oc2)cc1OC
[11]
  IC50: 151 µM (inactive)

## COc1ccc(N/C=C/C(=O)c2cc(OC)c(OC)c(OC)c2)cc1
[12]
  EC50: 0.666 µM (active)
[13]
  EC50: 20.5 µM (inconclusive)
[14]
  EC50: 0.441 µM (inconclusive)
[15]
  EC50: 0.603 µM (active)
[16]
  EC50: 0.133 µM (active)

## Cc1ccc(-c2cc(C(=O)N(C)Cc3cnn(C)c3C)c3cc(Br)ccc3n2)cc1
[17]
  IC50: > 79 µM (inactive)
[18]
  IC50: 1.11 µM (active)
[19]
  AC50: 43.1 µM (active)
[20]
  AC50: 29.1 µM (active)
[21]
  AC50: 26.6 µM (active)

## Clc1ccccc1/C=C/c1nc(-c2cccnc2)no1
[22]
  AC50: 54.3 µM (active)
[23]
  IC50: > 100 µM (inactive)

## COc1cc2c(cc1NC(=O)c1cccnc1)CCCC2
[23]
  IC50: > 100 µM (inactive)
[1]
  AC50: 9.76 µM (active)

## C=CCc1cccc2cc(C(=O)NCc3cccnc3)c(=O)oc12
[24]
  IC50: 21.2 µM (inactive)

## Cn1c2ccccc2c2c(=O)oc3ccccc3c21
[25]
  IC50: > 99 µM (inactive)

## COc1ccccc1N1CCN(/N=C/c2ccc(Cl)c([N+](=O)[O-])c2)CC1
[25]
  IC50: > 99 µM (inactive)

## Cc1ccc(/C=N/NC(=O)c2cc(-c3ccncc3)nc3ccccc23)o1
[12]
  EC50: 2.77 µM (active)
[13]
  EC50: 37.5 µM (inconclusive)
[14]
  EC50: 25.4 µM (active)
[15]
  EC50: 2.27 µM (active)
[16]
  EC50: 1.41 µM (active)
